Laboratory results as given in article PMC5895059, “Scaffold hopping from (5-hydroxymethyl) isophthalates to multisubstituted pyrimidines diminishes binding affinity to the C1 domain of protein kinase C” (PLoS ONE, 2018).
Several values for one entry are separate records, joined by “and”; a condition that tells them apart may be missing. Equal values may be shown once.

Biological target: PKCα (Homo sapiens, UniProt P17252)
Assay: [3H]PDBu displacement, 96-well plate filtration binding assay
Settings: for Displacement assay raw data (CCPM): single replicate wells; for Residual [^3H]PDBu binding to PKCα (% of control): 20 μM compound concentration, mean + SEM, n = 2–8; for Displacement of [^3H]PDBu from PKCα (in words): concentration range of 0.2–30 μM

| Structure (SMILES) | Residual [^3H]PDBu binding to PKCα (% of control) | Displacement of [^3H]PDBu from PKCα (in words) | Displacement assay raw data (CCPM) (1 nM test substance, listed as PMA) | Displacement assay raw data (CCPM) (10 nM test substance, listed as PMA) | Displacement assay raw data (CCPM) (100 nM test substance, listed as PMA) | Displacement assay raw data (CCPM) (0,2 µM test substance) | Displacement assay raw data (CCPM) (1 µM test substance) | Displacement assay raw data (CCPM) (4 µM test substance) | Displacement assay raw data (CCPM) (10 µM test substance) | Displacement assay raw data (CCPM) (20 µM test substance) | Displacement assay raw data (CCPM) (30 µM test substance) |
| --- | --- | --- | --- | --- | --- | --- | --- | --- | --- | --- | --- |
| CCCCCCCCCCCCCC(=O)O[C@@H]1[C@@H](C)[C@@]2(O)[C@@H](C=C(CO)C[C@]3(O)C(=O)C(C)=C[C@@H]23)[C@@H]2C(C)(C)[C@]12OC(C)=O [Phorbol 12-myristate-13-acetate, reference compound] |  |  | 1177 CCPM and 1302 CCPM and 1254 CCPM and 242 CCPM and 282 CCPM and 239 CCPM and 330 CCPM and 372 CCPM and 364 CCPM | 406 CCPM and 456 CCPM and 410 CCPM and 123 CCPM and 132 CCPM and 186 CCPM and 230 CCPM and 206 CCPM | 341 CCPM and 382 CCPM and 361 CCPM and 56 CCPM and 49 CCPM and 43 CCPM and 48 CCPM and 57 CCPM and 40 CCPM |  |  |  |  |  |  |
| CCCCC(CC)OC(=O)c1cc(C(=O)OC(CC)CCCC)nc(CO)n1 (stereo not shown) [Compound 1e, Di(heptan-3-yl) 2-(hydroxymethyl)pyrimidine-4,6-dicarboxylate] | 86.7 ± 7.7 % of control |  |  |  |  | 5837 CCPM and 9796 CCPM and 9740 CCPM and 9577 CCPM and 6148 CCPM and 6500 CCPM | 5874 CCPM and 9629 CCPM and 9242 CCPM and 9347 CCPM and 6081 CCPM and 6166 CCPM | 6376 CCPM and 9023 CCPM and 9333 CCPM and 9667 CCPM and 6505 CCPM and 6158 CCPM | 5476 CCPM and 8845 CCPM and 9519 CCPM and 8799 CCPM and 5785 CCPM and 5946 CCPM | 5873 CCPM and 9742 CCPM and 7884 CCPM and 7727 CCPM and 6291 CCPM and 6049 CCPM | 5476 CCPM and 8529 CCPM and 8458 CCPM and 9304 CCPM and 5635 CCPM and 5882 CCPM |
| O=C(OCc1cccc(C(F)(F)F)c1)c1cc(CO)cc(C(=O)OCc2cccc(C(F)(F)F)c2)c1 [HMI-1a3, reference compound] | 54.8 ± 2.6 % of control |  |  |  |  |  |  |  |  |  |  |
| CCCCC(CC)OC(=O)c1cc(C(=O)OCC)nc(CO)n1 (stereo not shown) [Compound 1d, 4-ethyl 6-(heptan-3-yl) 2-(hydroxymethyl)pyrimidine-4,6-dicarboxylate] | 98.2 ± 1.6 % of control |  |  |  |  | 5785 CCPM and 11839 CCPM and 10949 CCPM and 11567 CCPM and 6093 CCPM and 6313 CCPM | 5593 CCPM and 11705 CCPM and 12203 CCPM and 11600 CCPM and 5961 CCPM | 5222 CCPM and 11573 CCPM and 11709 CCPM and 11091 CCPM and 5210 CCPM and 6475 CCPM | 5570 CCPM and 12001 CCPM and 12205 CCPM and 11408 CCPM and 5899 CCPM and 5461 CCPM | 5518 CCPM and 11664 CCPM and 11365 CCPM and 11482 CCPM and 5575 CCPM and 5277 CCPM | 5500 CCPM and 12337 CCPM and 11581 CCPM and 11144 CCPM and 5029 CCPM and 5100 CCPM |
| CCCCCCCOC(=O)c1cc(C(=O)OCCCCCCC)nc(CO)n1 [Compound 1a, Diheptyl 2-(hydroxymethyl)pyrimidine-4,6-dicarboxylate] | 94.1 ± 2.4 % of control |  |  |  |  | 5564 CCPM and 8472 CCPM and 8055 CCPM and 9131 CCPM and 5172 CCPM and 4908 CCPM | 5111 CCPM and 8836 CCPM and 8480 CCPM and 8743 CCPM and 5670 CCPM and 5038 CCPM | 5090 CCPM and 8165 CCPM and 8077 CCPM and 7980 CCPM and 5413 CCPM and 5275 CCPM | 5789 CCPM and 8577 CCPM and 7653 CCPM and 8759 CCPM and 5036 CCPM and 5595 CCPM | 4889 CCPM and 7960 CCPM and 7787 CCPM and 7605 CCPM and 5228 CCPM and 4729 CCPM | 4835 CCPM and 7857 CCPM and 7587 CCPM and 5013 CCPM and 5317 CCPM |
| CCCCCCCCCCCOC(=O)c1cc(C(=O)OCCCCCCCCCCC)nc(CO)n1 [Compound 1c, Diundecyl 2-(hydroxymethyl)pyrimidine-4,6-dicarboxylate] | 103.7 ± 5.3 % of control |  |  |  |  | 8135 CCPM and 9009 CCPM and 9090 CCPM | 7374 CCPM and 8410 CCPM and 8950 CCPM | 8779 CCPM and 7927 CCPM and 8172 CCPM | 7968 CCPM and 8364 CCPM and 8092 CCPM | 7670 CCPM and 9322 CCPM and 8225 CCPM | 7089 CCPM and 8399 CCPM and 9539 CCPM |

Further lines, with some results ahead:

| Residual [^3H]PDBu binding to PKCα (% of control) | Displacement of [^3H]PDBu from PKCα (in words) | Structure (SMILES) | Displacement assay raw data (CCPM) (1 nM test substance, listed as PMA) | Displacement assay raw data (CCPM) (10 nM test substance, listed as PMA) | Displacement assay raw data (CCPM) (100 nM test substance, listed as PMA) | Displacement assay raw data (CCPM) (0,2 µM test substance) | Displacement assay raw data (CCPM) (1 µM test substance) | Displacement assay raw data (CCPM) (4 µM test substance) | Displacement assay raw data (CCPM) (10 µM test substance) | Displacement assay raw data (CCPM) (20 µM test substance) | Displacement assay raw data (CCPM) (30 µM test substance) |
| --- | --- | --- | --- | --- | --- | --- | --- | --- | --- | --- | --- |
| 90.5 ± 6.0 % of control |  | Cc1c(OCc2cccc(C(F)(F)F)c2)nc(CO)nc1C(=O)OCc1cccc(C(F)(F)F)c1 [Compound 2f, 3-(trifluoromethyl)benzyl 2-(hydroxymethyl)-5-methyl-6-[[3-(trifluoromethyl)benzyl]oxy]pyrimidine-4-carboxylate] |  |  |  | 5892 CCPM and 5535 CCPM and 6214 CCPM and 6493 CCPM and 5681 CCPM and 5606 CCPM | 5789 CCPM and 5065 CCPM and 5775 CCPM and 6129 CCPM and 5689 CCPM | 5908 CCPM and 5351 CCPM and 5505 CCPM and 4754 CCPM and 5387 CCPM and 5468 CCPM | 5951 CCPM and 5634 CCPM and 5541 CCPM and 5247 CCPM and 5397 CCPM and 4899 CCPM | 5509 CCPM and 4316 CCPM and 5047 CCPM and 4822 CCPM and 4931 CCPM and 4834 CCPM | 5249 CCPM and 4747 CCPM and 5046 CCPM and 4792 CCPM and 4631 CCPM and 4673 CCPM |
| 87.2 ± 3.1 % of control | strongest concentration dependence | CCCCC(CC)Oc1nc(CO)nc(C(=O)OCc2cccc(C(F)(F)F)c2)c1C (stereo not shown) [Compound 2l, 3-(trifluoromethyl)benzyl 6-(heptan-3-yloxy)-2-(hydroxymethyl)-5-methylpyrimidine-4-carboxylate] |  |  |  | 11787 CCPM and 12303 CCPM and 12556 CCPM and 11461 CCPM and 11853 CCPM and 10747 CCPM | 11810 CCPM and 12833 CCPM and 12739 CCPM and 9497 CCPM and 9690 CCPM and 11213 CCPM | 12017 CCPM and 12127 CCPM and 12580 CCPM and 10346 CCPM and 11241 CCPM and 10654 CCPM | 10371 CCPM and 11662 CCPM and 12071 CCPM and 9995 CCPM and 8831 CCPM and 10464 CCPM | 9853 CCPM and 10455 CCPM and 11136 CCPM and 9012 CCPM and 9579 CCPM and 9472 CCPM | 9538 CCPM and 8697 CCPM and 9196 CCPM and 7998 CCPM and 9967 CCPM and 8566 CCPM |
| 89.7 ± 7.1 % of control |  | CCCC(CCC)COC(=O)c1nc(CO)nc(OCC(CCC)CCC)c1C [Compound 2d, 2-propylpentyl 2-(hydroxymethyl)-5-methyl-6-[(2-propylpentyl)oxy]pyrimidine-4-carboxylate] |  |  |  | 9740 CCPM and 9459 CCPM and 9651 CCPM and 5569 CCPM and 5686 CCPM and 5559 CCPM | 7644 CCPM and 9362 CCPM and 9109 CCPM and 5694 CCPM and 5798 CCPM and 6238 CCPM | 7518 CCPM and 9016 CCPM and 8738 CCPM and 4914 CCPM and 5158 CCPM and 5369 CCPM | 7586 CCPM and 7877 CCPM and 7985 CCPM and 4832 CCPM and 5595 CCPM and 4913 CCPM | 7408 CCPM and 8501 CCPM and 8368 CCPM and 4542 CCPM and 5847 CCPM and 5492 CCPM | 8520 CCPM and 7381 CCPM and 8758 CCPM and 5782 CCPM and 4556 CCPM and 4977 CCPM |
| 85.3 ± 7.4 % of control | strongest concentration dependence | CCCCCCOC(=O)c1nc(CO)nc(OCCCCCC)c1C [Compound 2a, Hexyl 6-(hexyloxy)-2-(hydroxymethyl)-5-methylpyrimidine-4-carboxylate] |  |  |  | 7949 CCPM and 9699 CCPM and 8544 CCPM and 12898 CCPM and 11646 CCPM and 12786 CCPM | 7626 CCPM and 8685 CCPM and 9639 CCPM and 11993 CCPM and 12245 CCPM and 12903 CCPM | 7496 CCPM and 8524 CCPM and 9257 CCPM and 11421 CCPM and 11194 CCPM and 11877 CCPM | 7467 CCPM and 7915 CCPM and 7828 CCPM and 11547 CCPM and 11263 CCPM and 11635 CCPM | 6283 CCPM and 8361 CCPM and 8257 CCPM and 10077 CCPM and 11544 CCPM and 10260 CCPM | 6598 CCPM and 7105 CCPM and 7428 CCPM and 10040 CCPM and 10575 CCPM and 9972 CCPM |
| 87.2 ± 6.0 % of control |  | CCCCCCCOc1nc(CO)nc(C(=O)OCc2cccc(C(F)(F)F)c2)c1C [Compound 2j, 3-(trifluoromethyl)benzyl 6-(heptyloxy)-2-(hydroxymethyl)-5-methylpyrimidine-4-carboxylate] |  |  |  | 5070 CCPM and 6403 CCPM and 6171 CCPM and 8628 CCPM and 8277 CCPM and 7942 CCPM | 5379 CCPM and 6351 CCPM and 6353 CCPM and 8453 CCPM and 7986 CCPM and 7710 CCPM | 5347 CCPM and 4876 CCPM and 6039 CCPM and 8146 CCPM and 8038 CCPM and 8545 CCPM | 4978 CCPM and 4910 CCPM and 4651 CCPM and 7817 CCPM and 7871 CCPM and 7636 CCPM | 5492 CCPM and 5042 CCPM and 4393 CCPM and 7145 CCPM and 7596 CCPM and 7314 CCPM | 4511 CCPM and 5233 CCPM and 4215 CCPM and 6957 CCPM and 7148 CCPM and 7222 CCPM |
| 110.7 ± 5.5 % of control |  | CCCCC(CC)Oc1nc(CO)nc(C(=O)OC)c1C (stereo not shown) [Compound 2k, Methyl 6-(heptan-3-yloxy)-2-(hydroxymethyl)-5-methylpyrimidine-4-carboxylate] |  |  |  | 13386 CCPM and 11844 CCPM and 11381 CCPM and 5560 CCPM and 5090 CCPM and 5580 CCPM | 12313 CCPM and 12292 CCPM and 11097 CCPM and 5334 CCPM and 5340 CCPM and 5211 CCPM | 12488 CCPM and 11770 CCPM and 11977 CCPM and 5381 CCPM and 5013 CCPM and 5436 CCPM | 12602 CCPM and 12313 CCPM and 12064 CCPM and 5438 CCPM and 4595 CCPM and 5996 CCPM | 12386 CCPM and 11227 CCPM and 11279 CCPM and 6057 CCPM and 6588 CCPM and 6792 CCPM | 11742 CCPM and 11565 CCPM and 11279 CCPM and 5575 CCPM and 6135 CCPM and 5991 CCPM |
